Laboratory results published in publication PMC5730604.
Residues, ends and D or L forms follow the SMILES beside them. *: point of attachment. PEG28 = NCCOCCOCCOCCOCCOCCOCCOCCOCCOCCOCCOCCOCCOCCOCCOCCOCCOCCOCCOCCOCCOCCOCCOCCOCCOCCOCCOCCOCCC(=O)O; For = O=C*

What was measured:
human leukocytes = assay: Chemotaxis assay; format: cell-based; conditions: compared with the non-PEGylated effector
Procedure: Human leukocytes were re-suspended in Hank ’s Buffered Saline Solution (HBSS, without
Ca2+, Mg 2+) with 10 mM Hepes pH 7.3 and 0.3% BSA at 10^7 cells/ml. Cells were pre-warmed
at 37°C for 20 min. After adding the effector dilutions in the lower compartment of 24-well plates
(800 µl/well), a Millicell culture plate insert with 5 µm pore size was placed in each well, f ollowed
by immediate addition of 200 µl (2 million) leuk ocytes. In one well, the cells were added without
a f ilter insert, allowing determination of the input number. The plate was incubated at 37°C and
5% CO2 f or 45 min. 5 mM EDTA solution was added and the plate was incubated f or another
10 min at 37 °C. […]
Phorbol
(§1) 12- m yr ist oyl 13-acetate (P MA , 3 µg/ml) was used as a positive control. All samples were f ixed
(§2) in 1% formaldehyde Hoechst 33258 solution (0.5 µg/ml) was added and cells were k ept on ice
(§3) until analysis using a FACS Canto system. After gating for live cells and granulocytes (human
(§4) cells) or non- lymphocytes (murine cells) in the FSC/SSC plot, rhodamine-positive cells were
(§5) identif ied in a PE/SSC plot, using an unstimulated sample as a reference.
(§6) Human monocytes, after an overnight pre- culture, were incubated f or 6 more hours in 1 ml
(§7) RPMI+10% FCS containing 100 nM F2- 2PEG, 0.1 ng/ml LPS (Sigma- Aldrich), or no stimulus.
(§8) All experiments were performed in duplicates. […]

human granulocytes = assay: Oxidative burst (dihydro-rhodamine oxidation) assay; format: cell-based; conditions: compared with the non-PEGylated effector
Procedure: Activation of the oxidative burst (phagocyte NADPH oxidase) was measured using a
dihydrorhodamine (DHR, Molecular Probes) oxidation assay, based on a method described
previously1. In brief, 200 µl samples of human, murine or guinea pig leukocytes (1.25x 106
cells/ml in HHBS + 10 mM Hepes, pH 7.3, 0.3% BSA and 5 mM EDTA) were loaded with DHR
and catalase (Sigma-Aldrich) and cytochalasin B (Sigma-Aldrich) were added. Cells were pre-
incubated at 37°C for 10 min followed by the addition of 50 µl of effector dilutions (5x the
intended concentration) in the same buffer and another 15 min of incubation at 37°C. Phorbol
as §1, §2, §3, §4, §5, §6, §7, §8

human monocytes = assay: Cytokine release assay (ELISA); format: cell-based; conditions: 6 h incubation
Procedure: Phorbol
as §1, §2, §3, §4, §5, §6, §7
All experiments were performed in duplicates. Supernatants were centrif uged and aliq uot s of
150 µl were stored at - 80 °C until cytokine levels were measured with commercially available
ELISA kits (Ready-set-go system, eBiosciences). Cytokine concentrations in supernatants
were measured and calculated based on the standards included wit hin the ELISA kits and as
described by the manufacturer’s instructions. The following k its were used: Human TNFα (88-
analysis. Measured cytok ine levels were normalized to 1 (the average of the two unstimulated

mouse skin = assay: Local skin inflammation model, immune cell infiltration; format: in vivo; conditions: mouse skin, 24 h after subcutaneous injection of 100 nmol in Matrigel, HE sections
Procedure: Animals: Eighth Edition. W ashington, DC: The National Academies Press, 2011) were […]
Committee (LANUV AZ. 87- 51.04.2010.A278). All experiments were performed in the Institute […]
GmbH (Sulzf eld, Germany) were used. Mice were housed in individual ventilated cages under […]
humidity and a 12h dark/light cycle.
Soest, Germany) was given ad libitum. Guinea pigs were housed in conventional open cages in the same way as describe for mice. Animals were allowed to acclimatize to their […]
additional immunohistochemical stainings with antibodies against granulocytes/monocytes

[1] = 100 nM F2-2PEG or 0.1 ng/ml LPS

## CC[C@H](C)[C@H](NC(=O)[C@H](CCSC)NC=O)C(=O)N[C@@H](Cc1ccccc1)C(=O)N[C@@H](CC(C)C)C(=O)NCC(=O)NCC(=O)N[C@@H](CCCCNC(=O)CCOCCOCCOCCOCCOCCOCCOCCOCCOCCOCCOCCOCCOCCOCCOCCOCCOCCOCCOCCOCCOCCOCCOCCOCCOCCOCCOCCOCCN)C(=O)N[C@@H](CCCCNC(=O)CCOCCOCCOCCOCCOCCOCCOCCOCCOCCOCCOCCOCCOCCOCCOCCOCCOCCOCCOCCOCCOCCOCCOCCOCCOCCOCCOCCOCCN)C(=O)O [F2-2PEG] (For-MIFLGGK(PEG28)K(PEG28)-OH)
Human leukocytes
  loss of potency to induce chemotaxis when linked to the PEG chains: 1–2 orders of magnitude
Human granulocytes
  loss of potency for neutrophil activation (superoxide production) when linked to the PEG chains: 1–2 orders of magnitude
Human monocytes; 100 nM F2-2PEG
  IL-1β secreted: increased
Human monocytes; [1]
  IL-6 level: not significantly increased
  IL-8 level: not significantly increased
  TNFα level: not significantly increased
Mouse skin
  immune cell infiltration at the injection site: clearly showed infiltration by immune cells
